In the assay the test system is MV-4-11 cells. Put plainly: Gene expression microarray analysis (Affymetrix PrimeView) and GSEA. The format is cell-based, human. More on the design: RFU PODN (11730768_x_at) / Fold change /veh PODN (11730768_x_at) / RFU LINC00158 (11744669_a_at) / Fold change /veh LINC00158 (11744669_a_at) / RFU DUSP10 (11751237_a_at) / Fold change /veh DUSP10 (11751237_a_at) / RFU ID3 (11757404_x_at) / Fold change /veh ID3 (11757404_x_at) / RFU PLEKHG5 (11737974_s_at) / Fold change /veh PLEKHG5 (11737974_s_at) / RFU LRRC4B (11730491_at) / Fold change /veh LRRC4B (11730491_at) / RFU GIMAP4 (11747438_a_at) / Fold change /veh GIMAP4 (11747438_a_at) / RFU KRT8 (11758183_x_at) / Fold change /veh KRT8 (11758183_x_at) / RFU CNN1 (11734310_a_at) / Fold change /veh CNN1 (11734310_a_at) / RFU VPS37D (11726825_at) / Fold change /veh VPS37D (11726825_at) / RFU C10orf10 (11716522_x_at) / Fold change /veh C10orf10 (11716522_x_at) / RFU KIR2DL2 /// KIR2DL4 /// KIR2DL5A /// KIR2DL5B /// KIR2DS1 /// KIR2DS2 /// KIR2DS3 /// KIR2DS4 /// KIR3DL3 /// KIR3DL3 /// KIR3DS1 (11738374_at) / Fold change /veh KIR2DL2 /// KIR2DL4 /// KIR2DL5A /// KIR2DL5B /// KIR2DS1 /// KIR2DS2 /// KIR2DS3 /// KIR2DS4 /// KIR3DL3 /// KIR3DL3 /// KIR3DS1 (11738374_at) / RFU C1QL1 (11718748_at) / Fold change /veh C1QL1 (11718748_at) / RFU TMPRSS4 (11747572_a_at) / Fold change /veh TMPRSS4 (11747572_a_at) / RFU HAMP (11756126_x_at) / Fold change /veh HAMP (11756126_x_at) / RFU RNFT2 (11725882_a_at) / Fold change /veh RNFT2 (11725882_a_at) / RFU NR4A2 (11747474_a_at) / Fold change /veh NR4A2 (11747474_a_at) / RFU ABCC12 (11746883_a_at) / Fold change /veh ABCC12 (11746883_a_at) / RFU TMEM136 (11760407_x_at) / Fold change /veh TMEM136 (11760407_x_at) / RFU CLDN22 /// WWC2 (11732394_at) / Fold change /veh CLDN22 /// WWC2 (11732394_at) / RFU HLA-DPB1 (11760878_x_at) / Fold change /veh HLA-DPB1 (11760878_x_at) / RFU SPINT1 (11716480_a_at) / Fold change /veh SPINT1 (11716480_a_at) / RFU GAP43 (11754022_s_at) / Fold change /veh GAP43 (11754022_s_at) / RFU A4GNT (11735810_at) / Fold change /veh A4GNT (11735810_at) / RFU PRB3 (11715151_x_at) / Fold change /veh PRB3 (11715151_x_at) / RFU TUBB4B (11761932_at) / Fold change /veh TUBB4B (11761932_at) / RFU CAPN14 (11732068_a_at) / Fold change /veh CAPN14 (11732068_a_at) / RFU TMCC2 (11721928_a_at) / Fold change /veh TMCC2 (11721928_a_at) / RFU IRGQ (11745062_a_at) / Fold change /veh IRGQ (11745062_a_at) / RFU FAM174B (11720279_a_at) / Fold change /veh FAM174B (11720279_a_at) / RFU TMPRSS4 (11748680_a_at) / Fold change /veh TMPRSS4 (11748680_a_at) / RFU FAM212B (11763350_a_at) / Fold change /veh FAM212B (11763350_a_at) / RFU PLEKHG5 (11743358_a_at) / Fold change /veh PLEKHG5 (11743358_a_at) / RFU ZSCAN30 (11745921_a_at) / Fold change /veh ZSCAN30 (11745921_a_at) / RFU CMKLR1 (11741424_a_at) / Fold change /veh CMKLR1 (11741424_a_at) / RFU LOC101060620 /// MAPK8IP1 (11723275_at) / Fold change /veh LOC101060620 /// MAPK8IP1 (11723275_at) / RFU SPTSSB (11747773_x_at) / Fold change /veh SPTSSB (11747773_x_at) / RFU PRSS12 (11739890_at) / Fold change /veh PRSS12 (11739890_at) / RFU BIN1 (11741810_x_at) / Fold change /veh BIN1 (11741810_x_at) / RFU WNT11 (11732464_a_at) / Fold change /veh WNT11 (11732464_a_at) / RFU C10orf10 (11716521_a_at) / Fold change /veh C10orf10 (11716521_a_at) / RFU C5orf56 (11738089_at) / Fold change /veh C5orf56 (11738089_at) / RFU CYB561 (11721691_x_at) / Fold change /veh CYB561 (11721691_x_at) / RFU ANKRD19P (11752326_a_at) / Fold change /veh ANKRD19P (11752326_a_at) / RFU OR2T12 /// OR2T33 /// OR2T8 (11738714_s_at) / Fold change /veh OR2T12 /// OR2T33 /// OR2T8 (11738714_s_at) / RFU VCAN (11748164_a_at) / Fold change /veh VCAN (11748164_a_at) / RFU JSRP1 (11732532_at) / Fold change /veh JSRP1 (11732532_at) / RFU KRTAP10-11 (11738290_x_at) / Fold change /veh KRTAP10-11 (11738290_x_at) / RFU MYO3A (11730013_a_at) / Fold change /veh MYO3A (11730013_a_at) / RFU EBF3 (11725865_a_at) / Fold change /veh EBF3 (11725865_a_at) / RFU CAMK2N1 (11719241_x_at) / Fold change /veh CAMK2N1 (11719241_x_at) / RFU C5orf56 (11738088_a_at) / Fold change /veh C5orf56 (11738088_a_at) / RFU OLFML3 (11715873_a_at) / Fold change /veh OLFML3 (11715873_a_at) / RFU LOC100653217 /// NTM (11731650_a_at) / Fold change /veh LOC100653217 /// NTM (11731650_a_at) / RFU MAPK11 (11762145_a_at) / Fold change /veh MAPK11 (11762145_a_at) / RFU FIZ1 (11724087_x_at) / Fold change /veh FIZ1 (11724087_x_at) / RFU OASL (11726364_x_at) / Fold change /veh OASL (11726364_x_at) / RFU SOX15 (11748057_x_at) / Fold change /veh SOX15 (11748057_x_at) / RFU CD79A (11719716_a_at) / Fold change /veh CD79A (11719716_a_at) / RFU HIST1H1D (11736915_at) / Fold change /veh HIST1H1D (11736915_at) / RFU CASKIN2 (11723855_a_at) / Fold change /veh CASKIN2 (11723855_a_at) / RFU LOC730098 (11760151_x_at) / Fold change /veh LOC730098 (11760151_x_at) / RFU OR4N2 (11742367_at) / Fold change /veh OR4N2 (11742367_at) / RFU PRRT2 (11749266_a_at) / Fold change /veh PRRT2 (11749266_a_at) / RFU SNX32 (11753110_a_at) / Fold change /veh SNX32 (11753110_a_at) / RFU CDHR5 (11726645_a_at) / Fold change /veh CDHR5 (11726645_a_at) / RFU RCAN1 (11760418_a_at) / Fold change /veh RCAN1 (11760418_a_at) / RFU FAM167A (11723789_a_at) / Fold change /veh FAM167A (11723789_a_at) / RFU FAM26E (11764081_at) / Fold change /veh FAM26E (11764081_at) / RFU ISYNA1 (11749810_s_at) / Fold change /veh ISYNA1 (11749810_s_at) / RFU ACY1 (11761880_at) / Fold change /veh ACY1 (11761880_at) / RFU 11764098_at / Fold change /veh 11764098_at / RFU SAMD14 (11745864_x_at) / Fold change /veh SAMD14 (11745864_x_at) / RFU NPB (11741838_a_at) / Fold change /veh NPB (11741838_a_at) / RFU TMPRSS6 (11731388_a_at) / Fold change /veh TMPRSS6 (11731388_a_at) / RFU KRTAP10-2 (11738614_at) / Fold change /veh KRTAP10-2 (11738614_at) / RFU ARHGAP8 /// PRR5-ARHGAP8 (11727945_x_at) / Fold change /veh ARHGAP8 /// PRR5-ARHGAP8 (11727945_x_at) / RFU KRTAP5-7 /// NADSYN1 (11734609_at) / Fold change /veh KRTAP5-7 /// NADSYN1 (11734609_at) / RFU RASL12 (11751679_a_at) / Fold change /veh RASL12 (11751679_a_at) / RFU CDKN2B (11736163_a_at) / Fold change /veh CDKN2B (11736163_a_at) / RFU PRF1 (11729649_at) / Fold change /veh PRF1 (11729649_at) / RFU, ZNF638 /// ZNF638-IT1 / Fold change vs veh, ZNF638 /// ZNF638-IT1 / RFU, PANK3 / Fold change vs veh, PANK3 / RFU, SH3YL1 / Fold change vs veh, SH3YL1 / RFU, ZEB2 / Fold change vs veh, ZEB2 / RFU, NRIP1 / Fold change vs veh, NRIP1 / RFU, PTTG1IP / Fold change vs veh, PTTG1IP / RFU, CAPN2 / Fold change vs veh, CAPN2 / RFU, MED14 / Fold change vs veh, MED14 / RFU, SNORA58 / Fold change vs veh, SNORA58 / RFU, C1orf63 / Fold change vs veh, C1orf63 / RFU, LRRFIP1 / Fold change vs veh, LRRFIP1 / RFU, NDUFAF7 / Fold change vs veh, NDUFAF7 / RFU, SLC12A2 / Fold change vs veh, SLC12A2 / RFU, IBTK / Fold change vs veh, IBTK / RFU, ESF1 / Fold change vs veh, ESF1 / Fold change vs veh, TMEM50B / RFU, TAOK1 / Fold change vs veh, TAOK1 / RFU, ACBD3 / Fold change vs veh, ACBD3 / RFU, TMA16 / Fold change vs veh, TMA16 / RFU, RWDD3 / Fold change vs veh, RWDD3 / RFU, BCAT1 / Fold change vs veh, BCAT1 / RFU, EDEM3 / Fold change vs veh, EDEM3 / RFU, TMEM33 / Fold change vs veh, TMEM33 / RFU, WDR75 / Fold change vs veh, WDR75 / RFU, AHCTF1 / Fold change vs veh, AHCTF1 / RFU, TFRC / Fold change vs veh, TFRC / RFU, ZDHHC17 / Fold change vs veh, ZDHHC17 / RFU, NOM1 / Fold change vs veh, NOM1 / RFU, ARL8B / Fold change vs veh, ARL8B / RFU, ZBTB11 / Fold change vs veh, ZBTB11 / RFU, TAMM41 / Fold change vs veh, TAMM41 / RFU, KIAA1704 /// LOC100996395 / Fold change vs veh, KIAA1704 /// LOC100996395 / RFU, ING1 / Fold change vs veh, ING1 / RFU, TRMT61B / Fold change vs veh, TRMT61B / RFU, FUBP3 / Fold change vs veh, FUBP3 / RFU, TP53 / Fold change vs veh, TP53 / RFU, TNKS2 / Fold change vs veh, TNKS2 / RFU, ZFP14 / Fold change vs veh, ZFP14 / RFU, ACTR2 / Fold change vs veh, ACTR2 / RFU, PPP3R1 / Fold change vs veh, PPP3R1 / RFU, PIK3R1 / Fold change vs veh, PIK3R1 / RFU, HNRNPA1 / Fold change vs veh, HNRNPA1 / RFU, RNF170 / Fold change vs veh, RNF170 / RFU, ZNF28 / Fold change vs veh, ZNF28 / RFU, RNGTT / Fold change vs veh, RNGTT / RFU, OGT / Fold change vs veh, OGT / RFU, BRD1 / Fold change vs veh, BRD1 / RFU, MARS / Fold change vs veh, MARS / RFU, ZNF655 / Fold change vs veh, ZNF655 / RFU, FAHD1 / Fold change vs veh, FAHD1 / RFU, BDP1 / Fold change vs veh, BDP1 / RFU, LRRCC1 / Fold change vs veh, LRRCC1 / RFU, ARID1A / Fold change vs veh, ARID1A / RFU, ZNF146 / Fold change vs veh, ZNF146 / RFU, ZNF330 / Fold change vs veh, ZNF330 / RFU, GPN3 / Fold change vs veh, GPN3 / RFU, C9orf123 / Fold change vs veh, C9orf123 / RFU, N4BP2L2 / Fold change vs veh, N4BP2L2 / RFU, ARFIP1 / Fold change vs veh, ARFIP1 / RFU, FAM179B / Fold change vs veh, FAM179B / RFU, BCL10 / Fold change vs veh, BCL10 / RFU, UHRF1BP1L / Fold change vs veh, UHRF1BP1L / RFU, BET1 / Fold change vs veh, BET1 / RFU, CNOT2 / Fold change vs veh, CNOT2 / RFU, ZNF268 / Fold change vs veh, ZNF268 / Fold change vs veh, ZNF507 / RFU, DGCR2 / Fold change vs veh, DGCR2 / RFU, WDSUB1 / Fold change vs veh, WDSUB1 / Fold change vs veh, HSP90B1 /// MIR3652 / RFU, ADSS / Fold change vs veh, ADSS / RFU, GK / Fold change vs veh, GK / RFU, ZNF148 / Fold change vs veh, ZNF148 / RFU, TAF9 / Fold change vs veh, TAF9 / RFU, SLC1A5 / Fold change vs veh, SLC1A5 / RFU, SLMO2 / Fold change vs veh, SLMO2 / RFU, ABCC4 / Fold change vs veh, ABCC4 / RFU, LOC101060439 /// RAP1B / Fold change vs veh, LOC101060439 /// RAP1B / RFU, RFX7 / Fold change vs veh, RFX7 / RFU, GTPBP10 / Fold change vs veh, GTPBP10 / RFU, CNEP1R1 / Fold change vs veh, CNEP1R1 / RFU, BIVM-ERCC5 /// ERCC5 / Fold change vs veh, BIVM-ERCC5 /// ERCC5 / RFU, ILF3 / Fold change vs veh, ILF3 / RFU 11762660_at / Fold change /veh 11762660_at / RFU VCAN (11757783_s_at) / Fold change /veh VCAN (11757783_s_at) / RFU DDX43 (11728927_at) / Fold change /veh DDX43 (11728927_at) / RFU KRT8 (11758188_x_at) / Fold change /veh KRT8 (11758188_x_at) / RFU NKD1 (11759106_at) / Fold change /veh NKD1 (11759106_at) / RFU SRD5A1 (11742802_a_at) / Fold change /veh SRD5A1 (11742802_a_at) / RFU TPSAB1 /// TPSB2 (11721975_s_at) / Fold change /veh TPSAB1 /// TPSB2 (11721975_s_at) / RFU GSTM3 (11746129_a_at) / Fold change /veh GSTM3 (11746129_a_at) / RFU IL23R (11737362_x_at) / Fold change /veh IL23R (11737362_x_at) / RFU TMEM51 (11727254_a_at) / Fold change /veh TMEM51 (11727254_a_at) / RFU PIWIL2 (11732686_x_at) / Fold change /veh PIWIL2 (11732686_x_at) / RFU ORM1 (11744905_x_at) / Fold change /veh ORM1 (11744905_x_at) / RFU CCDC152 (11743942_at) / Fold change /veh CCDC152 (11743942_at) / RFU ECM1 (11717891_a_at) / Fold change /veh ECM1 (11717891_a_at) / RFU IL23R (11748794_a_at) / Fold change /veh IL23R (11748794_a_at) / RFU TNFAIP8L3 (11732012_x_at) / Fold change /veh TNFAIP8L3 (11732012_x_at) / RFU MBOAT4 (11741988_at) / Fold change /veh MBOAT4 (11741988_at) / RFU 11764193_at / Fold change /veh 11764193_at / RFU TMEM53 (11763286_at) / Fold change /veh TMEM53 (11763286_at) / RFU MAGEB2 (11727129_at) / Fold change /veh MAGEB2 (11727129_at) / RFU TMEM200A (11744735_a_at) / Fold change /veh TMEM200A (11744735_a_at) / RFU CCDC152 (11751479_a_at) / Fold change /veh CCDC152 (11751479_a_at) / RFU FAM211A (11726209_a_at) / Fold change /veh FAM211A (11726209_a_at) / RFU RGS16 (11746705_a_at) / Fold change /veh RGS16 (11746705_a_at) / RFU VCAN (11755009_s_at) / Fold change /veh VCAN (11755009_s_at) / RFU RHOB (11743442_s_at) / Fold change /veh RHOB (11743442_s_at) / RFU RGS16 (11720943_a_at) / Fold change /veh RGS16 (11720943_a_at) / RFU RGS16 (11720944_at) / Fold change /veh RGS16 (11720944_at) / RFU, VPS4B / Fold change vs veh, VPS4B / RFU, CREB1 / Fold change vs veh, CREB1 / RFU, DNAJC13 / Fold change vs veh, DNAJC13 / RFU, GNAQ / Fold change vs veh, GNAQ / RFU, CDK5R1 / Fold change vs veh, CDK5R1 / RFU, ZRANB3 / Fold change vs veh, ZRANB3 / RFU, CUL4A / Fold change vs veh, CUL4A / RFU, CCNY / Fold change vs veh, CCNY / RFU, UFL1 / Fold change vs veh, UFL1 / RFU, COG3 / Fold change vs veh, COG3 / RFU, DIAPH2 / Fold change vs veh, DIAPH2 / RFU, SKA2 / Fold change vs veh, SKA2 / RFU, AFF3 / Fold change vs veh, AFF3 / RFU, LMF1 / Fold change vs veh, LMF1 / RFU, IPO11 / Fold change vs veh, IPO11 / RFU, DFFB / Fold change vs veh, DFFB / RFU, FOXP1 / Fold change vs veh, FOXP1 / RFU, CARD8 / Fold change vs veh, CARD8 / RFU, STRN3 / Fold change vs veh, STRN3 / RFU, ADK / Fold change vs veh, ADK / RFU, RASSF2 / Fold change vs veh, RASSF2 / RFU, WIPF1 / Fold change vs veh, WIPF1 / RFU, LARP1B / Fold change vs veh, LARP1B / RFU, RASA1 / Fold change vs veh, RASA1 / RFU, RB1 / Fold change vs veh, RB1 / RFU, PPFIA1 / Fold change vs veh, PPFIA1 / RFU, MAT2A / Fold change vs veh, MAT2A / RFU, CCT5 / Fold change vs veh, CCT5 / RFU, WDR92 / Fold change vs veh, WDR92 / RFU, CUX1 / Fold change vs veh, CUX1 / RFU, TTC7A / Fold change vs veh, TTC7A / RFU, TMEM135 / Fold change vs veh, TMEM135 / RFU, DEPTOR / Fold change vs veh, DEPTOR / RFU, CPM / Fold change vs veh, CPM / RFU, DNAJB6 / Fold change vs veh, DNAJB6 / RFU, CACNA2D3 / Fold change vs veh, CACNA2D3 / RFU, DTX4 / Fold change vs veh, DTX4 / RFU, TFCP2 / Fold change vs veh, TFCP2 / RFU, GMCL1 /// GMCL1P1 / Fold change vs veh, GMCL1 /// GMCL1P1 / RFU, AEBP2 / Fold change vs veh, AEBP2 / RFU, SNHG1 /// SNORD22 /// SNORD25 /// SNORD26 /// SNORD27 /// SNORD28 /// SNORD29 /// SNORD31 / Fold change vs veh, SNHG1 /// SNORD22 /// SNORD25 /// SNORD26 /// SNORD27 /// SNORD28 /// SNORD29 /// SNORD31 / Fold change (Aza/veh), C12orf56 (ProbeSet 11735607_a_at) / Fold change (ACY-1035/veh), C12orf56 (ProbeSet 11735607_a_at) / Fold change (Aza/veh), FGFR1OP (ProbeSet 11751329_s_at) / Fold change (ACY-1035/veh), FGFR1OP (ProbeSet 11751329_s_at) / Fold change (Aza/veh), VPS36 (ProbeSet 11739960_a_at) / Fold change (ACY-1035/veh), VPS36 (ProbeSet 11739960_a_at) / RFU SYPL1 (11715823_x_at) / Fold change /veh SYPL1 (11715823_x_at) / RFU IGFBP7 (11715501_s_at) / Fold change /veh IGFBP7 (11715501_s_at) / RFU REEP3 (11722064_at) / Fold change /veh REEP3 (11722064_at) / RFU IGLL1 (11728026_x_at) / Fold change /veh IGLL1 (11728026_x_at): dose or concentration left out as unconfirmed. As to conditions: MV-4-11 cells, 48 hours.

Structures are written as SMILES.

With `Nc1ncn([C@@H]2O[C@H](CO)[C@@H](O)[C@H]2O)c(=O)n1` [azacitidine], the “Fold change /veh ECM1 (11717891_a_at)” value was 1.26.

(Values after paper PMC5218480 (PLoS ONE, 2017).)
